Here are results for two molecules from patent publication US11992497B2 (priority 2021, dated 2024).

Each structure is given as a SMILES string. Read-outs that look alike come from different tables or passages of the source.

One data set concerns the target T1, UGT1A4 (Homo sapiens, UniProt P22310).
T1 construct: purchased BD Biosciences
T1 sequence (P22310 29-534): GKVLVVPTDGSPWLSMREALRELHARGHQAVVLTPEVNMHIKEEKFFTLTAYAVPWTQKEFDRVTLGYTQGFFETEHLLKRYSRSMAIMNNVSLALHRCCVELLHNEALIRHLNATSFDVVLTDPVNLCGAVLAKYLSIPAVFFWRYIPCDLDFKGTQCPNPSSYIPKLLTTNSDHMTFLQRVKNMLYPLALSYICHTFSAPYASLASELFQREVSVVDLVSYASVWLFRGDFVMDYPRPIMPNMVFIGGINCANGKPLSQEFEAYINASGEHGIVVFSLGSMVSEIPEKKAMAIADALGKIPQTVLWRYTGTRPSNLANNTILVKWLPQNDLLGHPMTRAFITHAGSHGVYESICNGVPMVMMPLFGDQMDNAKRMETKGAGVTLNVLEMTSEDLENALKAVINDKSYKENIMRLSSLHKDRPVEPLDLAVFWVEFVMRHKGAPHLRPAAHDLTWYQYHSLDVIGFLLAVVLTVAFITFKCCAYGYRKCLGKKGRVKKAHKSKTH
As to the kind of experiment: UGT reaction phenotyping, recombinant Supersomes. The format is in vitro ADME. Particulars: human, recombinant UGT1A4 Supersomes, pH 7.4, Test Conc. 1 μM; for microsomal CLint at 1 µM: read-out: Recombinant UGT CLINT Clearance; for half-life at 1 µM: read-out: Recombinant UGT Half Life T1/2. From the text: Experimental Summary: UGT Reaction Phenotyping (7 Isoforms).

Data set [1] is described as follows: Hepatocyte stability and metabolite profiling. The conditions noted are these: cryopreserved hepatocytes in suspension; Minipig cryopreserved hepatocytes. The format is in vitro ADME, minipig. How it is done:
(§1) The objective of this study was to investigate the stability of the test compound, CBG, in human, rat, dog, mouse, monkey and minipig cryopreserved hepatocytes. Follow-on metabolite profiling was performed.
(§2) CBG was incubated up to 2 hr with cryopreserved hepatocytes. Cryopreserved hepatocytes in suspension were added to test compound in supplemented media following pre-incubation to initiate the reaction and the reactions were stopped by organic solvent at the appropriate time points. The termination plates were centrifuged and sample supernatants were analysed using Cyprotex generic LC MS/MS conditions to generate intrinsic clearance values for CBG. Two control compounds for each species were included in the assay and if the values for these compounds were not within the specified limits the results were rejected and the experiment repeated.
(§3) Following the hepatocyte stability assay the samples were 59tilized for metabolite profiling using suitable high-resolution LC-MS/MS conditions. The 40 and 60 minute human samples, 20 and 120 minute rat samples, 10 and 20 minute dog and monkey samples, 20 and 60 minute mouse samples, and 40 and 120 minute minipig samples were compared against the 0 minute control sample to establish which and how many metabolites were formed. […] No further analysis was carried out with the mouse species.
(§4) The areas and percentages reported for the parent and metabolites were calculated using the XIC data. Metabolite observed at greater than 1% of the total of drug related material are reported. […] For accuracy, a ppm error of less than 5 is desirable; when the response for a metabolite observed is low the ppm error maybe greater than 5. Where a metabolite has been referred to as a potential oxidation it can refer to a potential hydroxylation, epoxidation or oxide formation. Representative collision induced dissociation (CID) mass spectra were obtained for the metabolites found.

Data set [2] deals with cryopreserved hepatocytes. The data set is described as follows: Hepatocyte stability and metabolite profiling. The format is in vitro ADME, minipig. Particulars: minipig hepatocyte samples. How it is done: as §1, §2, §3, §4
The test system of data set [3] is human intestine microsomes. The data set is described as follows: Metabolic stability in human intestine microsomes (UDPGA, UGT activity only). The format is in vitro ADME. How it is done: (§5) The objective of this study was to investigate the stability of the test compound, CBG, in the presence of intestinal microsomes that only have UGT activity and no CYP activity.
(§6) Test compound (1 μM) was incubated with pooled intestinal microsomes at 6 time points over the course of a 60 min assay and the test compound is analyzed by LC-MS/MS.
(§7) The final incubation volume is 500 μL. A minus cofactor control incubation was included for each compound tested where 0.1 M Tris, 5 mM MgCl2 buffer pH 7.4 is added instead of UDPGA (minus UDPGA). Two control compounds were included. All incubations were performed singularly for each test compound.
(§8) Each compound was incubated for 0, 5, 10, 20, 40 and 60 min. The control (minus UDPGA) was incubated for 60 min only. The reactions were stopped by transferring incubate into acetonitrile at the appropriate time points, in a 1:3 ratio. The termination plates were centrifuged at 3,000 rpm for 20 min at 4° C. to precipitate the protein.
(§9) Following protein precipitation, the sample supernatants were combined in cassettes of up to 4 compounds, internal standard was added and samples analysed using Cyprotex generic LC-MS/MS conditions.
(§10) From a plot of ln peak area ratio (compound peak area/internal standard peak area) against time, the gradient of the line was determined. Subsequently, half-life and intrinsic clearance were calculated using the equations below: […]

Assay in data set [4]: as above
Particulars: human, pooled intestinal microsomes, pH 7.4, 1 μM, 0.5 mg/mL microsomes + alamethicin, UDPGA. The class given is in vitro ADME. The procedure: as §5, §6, §7, §8, §9, §10

Data set [5] can be described thus: Quantification of CBG in rat brain tissue (LC-MS/MS). The class given is in vivo, Sprague-Dawley rat. The conditions noted are these: for concentration at 24 h: Sprague-Dawley, rat, brain, oral. How it is done:
The purpose of this study was to quantify cannabigerol (CBG) in rat plasma and brain.
Seven- to nine-week-old male and female Sprague-Dawley received either a single dose or once daily dosing for 21 days of vehicle or CBG at three different dosage levels as shown in the Table below.
Approximately 0.2-0.25 mL blood was collected during the first 24 hours after the single dose, and at multiple times points after the terminal dose for the animals receiving daily dosing for 21 days. Liver, kidney, and colon samples were collected and fixed in 10% NBF for 48 hours, then stored in 70% ethanol at room temperature. Brain samples were collected and flash frozen.
Analytical curves were constructed using non-zero standards with CBG concentration ranging from 0.0025 to 2.500 μg/mL and 2.500-100.0 μg/mL in blank rat plasma samples and 1.0 to 2500 ng/mL in blank brain tissues. A blank sample was used to exclude contamination.
Instrument Used: AB SCIEX QTRAP 4500/Shimadzu Prominence LC

As for `CCCCCc1cc(O)c(C/C=C(\C)CCC=C(C)C)c(OC)c1` [Compound 1, (E)-2-(3,7-dimethylocta-2,6-dien-1-yl)-3-methoxy-5-pentylphenol], on UGT1A4, the microsomal CLint at 1 µM is less than 2.89 µL/min/mg and the half-life at 1 µM was more than 240 min.
For the molecule `CCCCCc1cc(O)c(C/C=C(\C)CCC=C(C)C)c(O)c1` [CBG, cannabigerol], the microsomal CLint at 1 µM is less than 2.89 µL/min/mg on UGT1A4; 884 µL/min/mg in data set [4] (from 0 and 5 minute time points only). For the same molecule, the half-life at 1 µM at UGT1A4 is more than 240 min; in data set [4] it was 1.57 min. Besides, the half-life in data set [1] worked out at 42.7 min. In data set [1], the hepatocyte CLint was found to be 32.5 µL/min/1e6 cells. Also, the “number of metabolites observed” value in data set [2] was “four”. The “appearance of CBG-glucoronide (in words)” value in data set [3] (CBG incubated with human intestine microsomes) was “appeared rapidly”. Besides, the “Comments: detectability of test compound” value in data set [3] (by 10 minutes) is listed as “Test compound not detectable”. The “disappearance of parent compound (in words)” value in data set [3] (incubated with human intestine microsomes) is reported as “disappeared rapidly”. For the same molecule, the “CBG concentration in rat brain tissue (Day 21)” value in data set [5] (CBG 10 mg/kg oral gavage once daily, 24 hrs post Rx) was “BLQ (BLQ—Below Limit of Quantification (1.0 ng/g))”. The concentration at 24 h in data set [5] (both sexes, 30 mg/kg, CBG 30 mg/kg oral gavage once daily, 24 hrs post Rx, read-out: CBG concentration in rat brain tissue (Day 21)) was 43.8 ng/g; in data set [5] (female, 100 mg/kg, CBG 100 mg/kg once daily, 24 hrs post Rx, female rats, read-out: CBG concentration in rat brain tissue (Day 21), Average), 299 ng/g; in data set [5] (male, 100 mg/kg, CBG 100 mg/kg once daily, 24 hrs post Rx, male rats, read-out: CBG concentration in rat brain tissue (Day 21), Average), 540 ng/g. Moreover, the “CBG in brain (in words)” value in data set [5] (oral CBG, Day 21) is “not detected”.

One may read the hepatocyte CLint as a measure of how fast metabolising enzymes remove a compound, apart from limits set by blood flow.
